From US20100035856A1, “Beta-LACTAM-CONTAINING FORMULATIONS WITH INCREASED STABILITY IN AQUEOUS SOLUTION” (BAYER ANIMAL HEALTH GMBH, priority 2007, published 2010) come the findings set out here.

A short description of this data set: Stability of amoxicillin/K-clavulanate 4:1 in aqueous solution with urea. The class given is physicochemical.

With `CC1(C)S[C@@H]2[C@H](NC(=O)[C@H](N)c3ccc(O)cc3)C(=O)N2[C@H]1C(=O)O` [amoxicillin], the “loss of active ingredient” value (amoxicillin in aqueous amoxiclav solution containing 40% urea, within 24 hours) is given as “less than 10%”.
On to `O=C(O)[C@H]1/C(=C/CO)O[C@@H]2CC(=O)N21` [clavulanic acid], for which the “stability of clavulanic acid, effect of urea” value (aqueous amoxiclav solution with urea (FIG. 4)) is on record as “not adversely affected at all”.
